Assay results taken from patent US6525077B2, “Cyanoguanidine prodrugs” (Leo Pharmaceutical Products Ltd. A/S, priority 2000, dated 2003).
Values after ≈ are worked out from the molar mass of the structure shown.

Key:
[1] = Solubility in water; format: physicochemical
Protocol: The solubility in water of compounds of the present invention was determined by shaking the compounds in water for one hour at room temperature followed by filtration and determination of the concentration of the compound in the filtrate by HPLC. […]

[2] = system: human lung and breast cancer cell lines; conditions: cited from earlier work
[3] = system: human lung cancer tumour xenograft; conditions: cited from earlier work
[4] = system: normal human endothelial cells; conditions: cited from earlier work
[5] = system: human tumour cells; conditions: nude mice transplanted with human tumour cells, also paclitaxel-resistant tumour cells; cited from earlier work

Row | Compound | solubility at 1 h ([1]; thermodynamic from solid, shaken in water for one hour at room temperature, filtration, filtrate by HPLC) [mg/mL] | solubility (in words) ([1]; water) | antiproliferative activity in vitro [2] | antitumour activity in the nude mouse model [3] | antiproliferative activity on normal human endothelial cells [4] | antitumour activity in vivo [5] | Solubility in water [1] [mg/mL]
1 | N#CNC(=Nc1ccncc1)NCCCCCCOc1ccc(Cl)cc1 [N-(6-(4-chlorophenoxy)-hexyl)-N′-cyano-N″-(4-pyridyl)-guanidine] | 0.0002 (≈ 0.538 µM) | for all practical purposes insoluble | high antiproliferative activity | potent antitumour activity | considerably less antiproliferative activity | substantial antitumour activity | 
2 | COCCOCCOCCOCC(=O)OC[n+]1ccc(NC(=NC#N)NCCCCCCOc2ccc(Cl)cc2)cc1.[Cl-] [Example 8, 1-[2-(2-(2-Methoxyethoxy)-ethoxy)-ethoxy-acetoxymethyl]-4-[N′-cyano-N″-(6-(4-chlorophenoxy)-hexyl)-N-guanidino]-pyridinium chloride] |  |  |  |  |  |  | >50
3 | COCCOCCOCCOCCOC(=O)OC[n+]1ccc(NC(=NC#N)NCCCCCCOc2ccc(Cl)cc2)cc1.[Cl-] [Example 9, 1-[2-(2-(2-(2-Methoxyethoxy)-ethoxy)-ethoxy)-ethoxy-carbonyloxymethyl]-4-[N′-cyano-N″-(6-(4-chlorophenoxy)-hexyl)-N-guanidino]-pyridinium chloride] |  |  |  |  |  |  | >50
